Reference: publication PMC6133161, “Thiazoles with cyclopropyl fragment as antifungal, anticonvulsant, and anti-Toxoplasma gondii agents: synthesis, toxicity evaluation, and molecular docking study” (Medicinal Chemistry Research, 2018)
Values after ≈ are worked out from the molar mass of the structure shown.

Test system: Toxoplasma gondii RH strain
Experiment: [3H]-uracil incorporation assay in VERO host cells

## Nc1ccc(S(=O)(=O)Nc2ncccn2)cc1 [Sulfadiazine, reference compound]
1 µg/ml
  Proliferation of Tg ± SD: 104.59 ±4.12%
5 µg/ml
  Proliferation of Tg ± SD: 96.71 ±3.85%
25 µg/ml
  Proliferation of Tg ± SD: 78.58 ±4.67%
50 µg/ml
  Proliferation of Tg ± SD: 67.99 ±7.73%
125 µg/ml
  Proliferation of Tg ± SD: 65.58 ±4.80%
250 µg/ml
  Proliferation of Tg ± SD: 61.79 ±3.13%
500 µg/ml
  Proliferation of Tg ± SD: 56.68 ±3.64%
1250 µg/ml
  Proliferation of Tg ± SD: 45.17 ±1.03%
2500 µg/ml
  Proliferation of Tg ± SD: 45.36 ±0.58%
Toxoplasma gondii, Vero, read-out: IC50 anti-Tg
  IC50: 936 µg/mL (≈ 3.74 mM)
